This is an account of results in patent US11440922B2, “Heterocyclylmethylidene derivatives and their use as modulators of mGluR5 receptors” (Recordati Industria Chimica e Farmaceutica S.p.A., priority 2017, dated 2022).

Series [1] deals with human mGluR5 receptor (Homo sapiens (Human), UniProt P41594). The experiment in a line: Radioligand binding assay at cloned human mGluR5 receptor subtype ([3H]MPEP). Conditions: 4 nM [3H]MPEP, CHO T-REx h-mGluR5 cells, 60 min at 25° C.; read-out: mGlu5 Ki. An excerpt: (§1) Cell lines stably transfected were generated using inducible expression vectors encoding human mGlu5 receptor using the Tetracycline-Regulated Expression system (T-REx™ system, Invitrogen, Life Technologies). Human mGluR5 open reading frame (ORF), comprehensive of the stop codon, were cloned into the pcDNA4/TO/myc-His™ A vector, carrying the TetO2. The insertion site was HindIII-PstI for mGluR5 receptors. The obtained constructs were then transfected into the T-REx CHO™ cell line using the FuGENE protocol (Roche); the CHO T-REx™ cell line stably expresses the Tet repressor (from the pcDNA6/TR plasmid) under the selection of blasticidin, 10 μg/ml. Stable clones were obtained selecting with zeocin 1 mg/ml and maintaining in ULTRA CHO medium (LONZA) supplemented with dialyzed FBS, zeocin, blasticidine, at 37° C., in an atmosphere of 5% CO2. The expression of h-mGluR5 receptors was de-repressed with 1 μg/ml tetracycline for 18 h before binding experimentation, while the expression of h-mGluR5 receptors was derepressed respectively with 3 ng/ml and 10 ng/ml tetracycline for 18 h before calcium fluorescence experimentation.
Radioligand Binding Assay at Cloned Human mGluR5 Receptor Subtype
Affinity at transmembrane glutamate metabotropic cloned human mGluR5 receptor was evaluated according to the methods of Anderson (Anderson et al., J Pharmacol. Exp. Ther., (2002), Vol. 303(3), pp. 1044-51), with some modifications. Human cloned mGluR5 was obtained by re-suspending CHO T-REx h-mGluR5 cells (50 μg/well) in 20 mM HEPES, 2 mM MgCl2, 2 mM CaCl2, pH 7.4, that then were incubated in a final volume of 1 ml for 60 min at 25° C. with 4 nM [^3H]MPEP in the absence or presence of competing drugs. Non-specific binding was determined in the presence of 10 μM MPEP. The incubation was stopped by addition of cold Tris buffer pH 7.4 and rapid filtration through 0.2% polyethyleneimine pretreated Filtermat 1204-401 (Perkin Elmer) filters. The filters were then washed with cold buffer and the radioactivity retained on the filters was counted by liquid scintillation spectrometry (Betaplate 1204 BS-Wallac).
The inhibition curves of the tested compounds at cloned mGluR5 subtypes were determined by nonlinear regression analysis using software Prism 4.0 (Graphpad, San Diego, Calif.). The IC50 values and pseudo-Hill slope coefficients were estimated by the program. The values for the inhibition constant, Ki, were calculated according to the equation Ki=IC50/(1+[L]/Kd), where [L] is the concentration of radioligand and Kd is the equilibrium dissociation constant of the radioligand-receptor complex (Cheng et al., Biochem. Pharmacol. (1973), Vol. 22, pp. 3099-3108).

Series [2] concerns the target T1, human mGlu5 receptor (Homo sapiens (Human), UniProt P41594). The experiment in a line: Fold shift of agonist curve determination. Conditions: ratio of EC50 agonist (quisqualate or glutamate) curves in presence and in absence of test compound; compound at 1 μM. The class given is cell-based.
Source text: as §1
(§2) Cells were seeded into black-walled, clear-bottom, 96-well plates at a density of 80000 cell/well, in RPMI (without Phenol Red, without L-glutamine; Gibco LifeTechnologies, CA) supplemented with 10% dialyzed FBS. Following 18-h incubation with tetracycline, the cells were loaded with […] Ca^2+-sensitive fluorescent dye Fluo-4/AM (Molecular Probes) in Hanks' balanced saline solution (HBSS, Gibco LifeTechnologies, CA) with […] Hepes (Sigma) and 2.5 mM probenecid (Sigma), for 1 h at 37° C. The cells were washed three times with HBSS to remove extracellular dye. Fluorescence signals were measured by using the fluorescence microplate reader Flexstation III (Molecular Devices) at sampling intervals of 1.5 s for 60 s.
The PAM potency was evaluated by performing an agonist concentration response curve in the presence of the compounds. The compounds at fixed concentration (0.01 or 0.1 or 1 μM) were applied 10 minutes before the incubation of the agonist (quisqualate or glutamate) dose-response curve. The fold shift was determined as ratio of EC50 agonist curves in presence and in absence of test compound. For instance, and in particular compound 34 has a fold shift of 2.7.

Series [3] concerns the target T1, human mGlu5 receptor. The experiment in a line: Calcium fluorescence measurements, potentiation of mGlu5 activation (positive allosteric modulator activity). Conditions: EC20 of the agonist (quisqualate or glutamate), compounds applied 10 minutes before agonist. Type of series: cell-based.
Source text: as §1, §2
The antagonist potency was determined using the EC80 of the quisqualate used as agonist and the potentiation of mGlu5 activation was determined using the EC20 of the agonist (quisqualate or glutamate). The compounds were applied 10 minutes before the application of the agonist.
The negative allosteric modulator activity (expressed as IC50) and the positive allosteric modulator activity (expressed as EC50) of the compounds of the invention for the mGlu5 receptors is between 0.1 and 1000 nM.

T1 sequence (P41594 21-1212): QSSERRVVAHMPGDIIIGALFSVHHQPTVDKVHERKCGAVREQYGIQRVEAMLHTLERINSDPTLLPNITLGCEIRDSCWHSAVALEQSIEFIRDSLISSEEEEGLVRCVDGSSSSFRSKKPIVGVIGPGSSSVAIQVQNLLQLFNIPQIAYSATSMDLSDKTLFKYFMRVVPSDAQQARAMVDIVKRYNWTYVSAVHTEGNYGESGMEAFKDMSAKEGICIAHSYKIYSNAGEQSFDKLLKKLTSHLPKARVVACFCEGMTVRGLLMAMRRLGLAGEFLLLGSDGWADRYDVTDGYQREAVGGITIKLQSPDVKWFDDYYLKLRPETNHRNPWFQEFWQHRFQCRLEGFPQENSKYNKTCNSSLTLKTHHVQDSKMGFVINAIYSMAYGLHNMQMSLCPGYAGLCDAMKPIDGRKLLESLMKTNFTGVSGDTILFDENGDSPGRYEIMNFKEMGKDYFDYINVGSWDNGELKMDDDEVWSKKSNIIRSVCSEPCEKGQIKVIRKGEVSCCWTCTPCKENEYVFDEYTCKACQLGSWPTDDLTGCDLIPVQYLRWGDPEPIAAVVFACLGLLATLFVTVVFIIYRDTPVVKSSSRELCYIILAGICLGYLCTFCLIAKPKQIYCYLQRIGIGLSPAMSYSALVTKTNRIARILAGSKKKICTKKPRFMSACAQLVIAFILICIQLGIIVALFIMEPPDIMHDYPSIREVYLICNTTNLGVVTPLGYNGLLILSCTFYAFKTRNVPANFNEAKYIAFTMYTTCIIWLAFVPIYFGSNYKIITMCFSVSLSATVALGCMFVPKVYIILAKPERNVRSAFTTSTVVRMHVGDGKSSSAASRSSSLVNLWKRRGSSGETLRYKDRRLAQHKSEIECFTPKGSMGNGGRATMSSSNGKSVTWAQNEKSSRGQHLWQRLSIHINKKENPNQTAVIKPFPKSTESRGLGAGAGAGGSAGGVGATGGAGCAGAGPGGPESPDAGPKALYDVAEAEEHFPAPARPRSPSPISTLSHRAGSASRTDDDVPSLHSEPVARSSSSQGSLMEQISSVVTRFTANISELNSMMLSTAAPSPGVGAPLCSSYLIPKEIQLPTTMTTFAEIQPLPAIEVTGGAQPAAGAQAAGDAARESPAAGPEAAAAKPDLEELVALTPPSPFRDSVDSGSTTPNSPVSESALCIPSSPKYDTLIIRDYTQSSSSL
Sequence of human mGluR5 receptor (P41594 21-1212): as above

On to `CCOC(=O)N1CC/C(=C\C#Cc2cccc(C)n2)C(C)(C)C1` [Example 3, ethyl (4E)-3,3-dimethyl-4-[3-(6-methylpyridin-2-yl)prop-2-yn-1-ylidene]piperidine-1-carboxylate], for which the Ki in series [1] was determined as 1.47 nM.
For `CCOC(=O)N1CC/C(=C\C#Cc2cc(Cl)ccn2)C(C)(C)C1` [Example 18, ethyl (4E)-4-[3-(4-chloropyridin-2-yl)prop-2-yn-1-ylidene]-3,3-dimethylpiperidine-1-carboxylate], the inhibitory constant (Ki) in series [1] came out at 1.01 nM.
Still for that read-out and setting: the value for `CCOC(=O)N1CC/C(=C\C#Cc2cc(F)ccc2F)C(C)(C)C1` [Example 19, ethyl (4E)-4-[3-(2,5-difluorophenyl)prop-2-yn-1-ylidene]-3,3-dimethylpiperidine-1-carboxylate] was 0.89 nM.
Turning to `Cc1cccc(C(=O)N2CC/C(=C\C#Cc3cccc(Cl)c3)C(C)(C)C2)c1` [Example 43, {(4E)-4-[3-(3-chlorophenyl)prop-2-yn-1-ylidene]-3,3-dimethylpiperidin-1-yl}(3-methylphenyl)methanone], in series [2], the “mGlu5 Fold Shift @1 μM” value is reported as 2.8. Also, the EC50 in series [3] came to 64.5 nM. In series [1], the inhibition constant (Ki) is 7.39 nM.
`Cc1cc(C(=O)N2CC/C(=C\C#Cc3cccc(CO)c3)C(C)(C)C2)c(C)o1` [Example 46, (2,5-dimethylfuran-3-yl)[(4E)-4-{3-[3-(hydroxymethyl)phenyl]prop-2-yn-1-ylidene}-3,3-dimethylpiperidin-1-yl]methanone]: the “mGlu5 Fold Shift @1 μM” value in series [2] is given as 3.79. For the same compound, the concentration giving a half-maximal response (EC50) in series [3] amounted to 37.4 nM. In series [1], the Ki is 323 nM.
For `COC(=O)N1CC/C(=C\C#Cc2nccc(C)n2)C1(C)C` [Example 64, methyl (3E)-2,2-dimethyl-3-[3-(4-methylpyrimidin-2-yl)prop-2-yn-1-ylidene]pyrrolidine-1-carboxylate], the Ki in series [1] worked out at 82.9 nM.
With `CCOC(=O)N1CC/C(=C\C#Cc2cc(C#N)ccn2)C1(C)C` [Example 73, ethyl (3E)-3-[3-(4-cyanopyridin-2-yl)prop-2-yn-1-ylidene]-2,2-dimethylpyrrolidine-1-carboxylate], the inhibition constant (Ki) in series [1] was determined as 29.8 nM.
Regarding `CC1(C)CN(C(=O)c2cccc(Cl)c2)CC/C1=C\c1cc(-c2cccc(Cl)c2)[nH]n1` [Example 107, (3-chlorophenyl)[(4E)-4-{[5-(3-chlorophenyl)-1H-pyrazol-3-yl]methylidene}-3,3-dimethylpiperidin-1-yl]methanone], in series [2], the “mGlu5 Fold Shift @1 μM” value is given as 7.66. The 50% effective concentration (EC50) in series [3] was 121 nM. Further, the Ki in series [1] worked out at 932 nM.
In the case of `CC1(C)CN(C(=O)c2cccc(Cl)c2)CC/C1=C\C#Cc1cccc(C#N)c1` [Example 116, 3-{(3E)-3-[1-(3-chlorobenzoyl)-3,3-dimethylpiperidin-4-ylidene]prop-1-yn-1-yl}benzonitrile], the “mGlu5 Fold Shift @1 μM” value in series [2] is 2.14. For the same compound, the concentration giving a half-maximal response (EC50) in series [3] came to 52.8 nM. In addition, in series [1], the inhibitory constant (Ki) was 1.6 nM.
The corresponding values for `CC1(C)CN(C(=O)c2cccc(Cl)c2)CC/C1=C\C#Cc1cccc(CO)c1` [Example 119, (3-chlorophenyl){(4E)-4-{3-[3-(hydroxymethyl)phenyl]prop-2-yn-1-ylidene}-3,3-dimethylpiperidin-1-yl]methanone] are 2.9, 49.7 nM and 8.05 nM.
As for `CC1(C)CN(C(=O)c2cccc(Cl)c2)CC/C1=C\C#Cc1ccc(F)cc1` [Example 120, (3-chlorophenyl){(4E)-4-[3-(4-fluorophenyl)prop-2-yn-1-ylidene]-3,3-dimethylpiperidin-1-yl}methanone], the “mGlu5 Fold Shift @1 μM” value in series [2] is reported as 5.5. Further, the 50% effective concentration (EC50) in series [3] was determined as 38.6 nM. Further, the Ki in series [1] was determined as 4.02 nM.
For `CC1(C)CN(C(=O)c2cccc(O)c2)CC/C1=C\C#Cc1cccc(Cl)c1` [Example 126, {(4E)-4-[3-(3-chlorophenyl)prop-2-yn-1-ylidene]-3,3-dimethylpiperidin-1-yl}(3-hydroxyphenyl)methanone], the “mGlu5 Fold Shift @1 μM” value in series [2] is listed as 3.4. Moreover, the EC50 in series [3] worked out at 115 nM.
Turning to `Cc1cccc(C(=O)N2CC/C(=C\C#Cc3cccc(Cl)c3)C(C)(C)C2)n1` [Example 128, {(4E)-4-[3-(3-chlorophenyl)prop-2-yn-1-ylidene]-3,3-dimethylpiperidin-1-yl}(6-methylpyridin-2-yl)methanone], the “mGlu5 Fold Shift @1 μM” value in series [2] came to 3.5. Further, the EC50 in series [3] was determined as 165 nM. Moreover, in series [1], the Ki was determined as 1.82 nM.
As for `COc1cccc(C(=O)N2CC/C(=C\C#Cc3cccc(Cl)c3)C(C)(C)C2)c1` [Example 137, {(4E)-4-[3-(3-chlorophenyl)prop-2-yn-1-ylidene]-3,3-dimethylpiperidin-1-yl}(3-methoxyphenyl)methanone], the “mGlu5 Fold Shift @1 μM” value in series [2] was 2.1. Moreover, the concentration for a half-maximal effect (EC50) in series [3] stood at 268 nM.
As to `COc1cc(OC)nc(C(=O)N2CC/C(=C\C#Cc3cccc(Cl)c3)C(C)(C)C2)n1` [Example 166, {(4E)-4-[3-(3-chlorophenyl)prop-2-yn-1-ylidene]-3,3-dimethylpiperidin-1-yl}(4,6-dimethoxypyrimidin-2-yl)methanone], in series [2], the “mGlu5 Fold Shift @1 μM” value worked out at 1.35.
Turning to `CCn1nc(C)c(C(=O)N2CC/C(=C\C#Cc3cccc(Cl)c3)C(C)(C)C2)n1` [Example 167, {(4E)-4-[3-(3-chlorophenyl)prop-2-yn-1-ylidene]-3,3-dimethylpiperidin-1-yl}(2-ethyl-5-methyl-2H-1,2,3-triazol-4-yl)methanone], the “mGlu5 Fold Shift @1 μM” value in series [2] is reported as 2.7. Further, in series [3], the 50% effective concentration (EC50) was found to be 23 nM. Further, the Ki in series [1] is 2.42 nM.
The corresponding values for `CC1(C)CN(C(=O)c2cccc(Cl)c2)CC/C1=C\C#Cc1cccc(O)c1` [Example 191, (3-chlorophenyl){(4E)-4-[3-(3-hydroxyphenyl)prop-2-yn-1-ylidene]-3,3-dimethylpiperidin-1-yl}methanone] are 3.9, 224 nM and 7.35 nM.
For the compound `COc1cccc(C(=O)N2CC/C(=C\C#Cc3cccc(C#N)c3)C(C)(C)C2)c1` [Example 196, 3-{(3E)-3-[1-(3-methoxybenzoyl)-3,3-dimethylpiperidin-4-ylidene]prop-1-yn-1-yl}benzonitrile], the “mGlu5 Fold Shift @1 μM” value in series [2] came to 2.2. For the same compound, the concentration for a half-maximal effect (EC50) in series [3] was found to be 87.7 nM.
With `Cc1cc(C(=O)N2CC/C(=C\C#Cc3cc(F)cc(C#N)c3)C(C)(C)C2)c(C)o1` [Example 200, 3-[(3E)-3-{1-[(2,5-dimethylfuran-3-yl)carbonyl]-3,3-dimethylpiperidin-4-ylidene}prop-1-yn-1-yl]-5-fluorobenzonitrile], the “mGlu5 Fold Shift @1 μM” value in series [2] came to 2.3. The concentration giving a half-maximal response (EC50) in series [3] is 291 nM. In series [1], the inhibitory constant (Ki) was found to be 637 nM.
With `O=C(c1cccc(Cl)c1)N1CC/C(=C\C#Cc2cccc(Cl)c2)C(F)(F)C1` [Example 201, (3-chlorophenyl){(4E)-4-[3-(3-chlorophenyl)prop-2-yn-1-ylidene]-3,3-difluoropiperidin-1-yl}methanone], the “mGlu5 Fold Shift @1 μM” value in series [2] was determined as 4.5. The concentration giving a half-maximal response (EC50) in series [3] was determined as 88.2 nM. Also, the Ki in series [1] came to 1.91 nM.

For orientation: Ki means the dissociation constant of the complex between target and ligand, obtained from inhibition or displacement. As a reminder, the EC50 is the concentration needed to bring the measured effect to its halfway point.
